Results on 2 compounds are retold here after article PMC11480532, “The rapid-reaction kinetics of an electron-bifurcating flavoprotein, the crotonyl-CoA-dependent NADH:ferredoxin oxidoreductase EtfAB:bcd” (The Journal of Biological Chemistry, 2024).

Test [1] deals with T1, EtfAB:bcd (crotonyl-CoA-dependent NADH:ferredoxin oxidoreductase), NADH site on the bifurcating FAD of EtfAB (Megasphaera elsdenii, UniProt G0VLZ5+G0VLZ6).
T1 construct: gene MELS_2127; full-length recombinant EtfAB and bcd, each with C-terminal Strep-II tag, E. coli BL21, mixed equimolar; assignment of Mels_2126 to EtfA and Mels_2127 to EtfB is inferred from the printed order; with Electron transfer flavoprotein subunit alpha; Acyl-CoA dehydrogenase, short-chain specific (butyryl-CoA dehydrogenase)
T1 sequence (G0VLZ6 1-270): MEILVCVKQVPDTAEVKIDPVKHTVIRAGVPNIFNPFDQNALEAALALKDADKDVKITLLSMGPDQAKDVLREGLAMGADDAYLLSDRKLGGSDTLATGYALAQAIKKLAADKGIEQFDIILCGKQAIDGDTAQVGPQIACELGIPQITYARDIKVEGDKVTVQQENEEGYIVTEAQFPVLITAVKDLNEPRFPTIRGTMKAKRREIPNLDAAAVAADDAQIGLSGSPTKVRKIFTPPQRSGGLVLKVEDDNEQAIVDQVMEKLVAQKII
T1 sequence (G0VLZ5 1-338): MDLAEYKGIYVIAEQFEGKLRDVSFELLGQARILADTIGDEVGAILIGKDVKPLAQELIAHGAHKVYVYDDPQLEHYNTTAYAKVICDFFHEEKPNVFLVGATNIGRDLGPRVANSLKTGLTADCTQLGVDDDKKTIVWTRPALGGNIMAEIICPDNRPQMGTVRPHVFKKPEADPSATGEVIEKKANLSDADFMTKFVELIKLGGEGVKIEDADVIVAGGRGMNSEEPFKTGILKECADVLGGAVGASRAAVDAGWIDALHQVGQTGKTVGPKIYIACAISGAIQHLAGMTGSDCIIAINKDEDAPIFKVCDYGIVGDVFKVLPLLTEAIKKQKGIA
T1 sequence (G0VLZ7 1-383 partner): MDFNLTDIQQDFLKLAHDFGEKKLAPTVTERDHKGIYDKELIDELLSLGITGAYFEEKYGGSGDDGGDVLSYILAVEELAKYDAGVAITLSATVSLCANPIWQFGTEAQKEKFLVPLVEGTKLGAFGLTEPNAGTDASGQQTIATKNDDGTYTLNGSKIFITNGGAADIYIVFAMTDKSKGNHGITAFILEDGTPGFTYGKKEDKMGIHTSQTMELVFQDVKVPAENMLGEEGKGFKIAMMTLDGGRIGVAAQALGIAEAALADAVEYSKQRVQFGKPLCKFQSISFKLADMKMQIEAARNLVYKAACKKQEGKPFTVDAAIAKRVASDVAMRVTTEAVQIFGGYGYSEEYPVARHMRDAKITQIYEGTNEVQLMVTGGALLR
Nature of the test: stopped-flow at […] nm, hyperbolic fit of kobs of bf FAD reduction. The format is biochemical. Particulars: oxidized complex, 6.5 μM; 50 mM Tris-HCl, 150 mM NaCl, pH 7.5, 10 °C; anaerobic; no ferredoxin or crotonyl-CoA; fast phase (bf FAD); read-out: apparent Kd.

Test [2] concerns the target T2, EtfAB:bcd (crotonyl-CoA-dependent NADH:ferredoxin oxidoreductase), crotonyl-CoA site on bcd (Megasphaera elsdenii, UniProt G0VLZ7).
T2 construct: gene MELS_2128; same complex as P1; bcd freed of persulfide-CoA adduct by dithionite; C-terminal Strep-II tags, E. coli BL21; with Electron transfer flavoprotein subunit alpha; Electron transfer flavoprotein subunit beta
T2 sequence (G0VLZ7 1-383): T1 sequence (G0VLZ7 1-383 partner)
T2 sequence (G0VLZ5 1-338 partner): T1 sequence (G0VLZ5 1-338)
T2 sequence (G0VLZ6 1-270 partner): T1 sequence (G0VLZ6 1-270)
Nature of the test: stopped-flow reoxidation of dithionite-reduced complex; charge-transfer absorbance; oxidative titration. The format is biochemical. Particulars: fully reduced EtfAB:bcd; 50 mM Tris-HCl, 150 mM NaCl, pH 7.5, 10 °C; anaerobic; no ferredoxin.

On to `NC(=O)C1=CN([C@@H]2O[C@H](COP(=O)(O)OP(=O)(O)OC[C@H]3O[C@@H](n4cnc5c(N)ncnc54)[C@H](O)[C@@H]3O)[C@@H](O)[C@H]2O)C=CC1` [NADH], for which, in test [1], the Kd was 43 µM.

Take `C/C=C/C(=O)SCCNC(=O)CCNC(=O)[C@H](O)C(C)(C)COP(=O)(O)OP(=O)(O)OC[C@H]1O[C@@H](n2cnc3c(N)ncnc32)[C@H](O)[C@@H]1OP(=O)(O)O` [crotonyl-CoA]: the “stopped-flow reoxidation of dithionite-reduced complex; charge-transfer absorban” value in test [2] is “reoxidation of dithionite-reduced EtfAB:bcd6e- by crotonyl-CoA, which exhibits a [crotonyl-CoA]-independent rate constant”.
